From patent publication US10479780B2, “Aminopyrazole derivatives” (Chugai Seiyaku Kabushiki Kaisha, priority 2015, dated 2019)
pIC50: −log10 of the molar value.

Columns and labels:
Type in all cases: biochemical
human Src enzyme = target: T1, human Src enzyme (Homo sapiens, UniProt P12931); assay: Src enzyme inhibitory activity (time-resolved fluorometry, biotinylated peptide phosphorylation); details: biotinylated peptide phosphorylation, read-out: SRC_IC50
T1 construct: purchased Carna Biosciences, Inc. 08-173
T1 sequence (P12931 whole entry): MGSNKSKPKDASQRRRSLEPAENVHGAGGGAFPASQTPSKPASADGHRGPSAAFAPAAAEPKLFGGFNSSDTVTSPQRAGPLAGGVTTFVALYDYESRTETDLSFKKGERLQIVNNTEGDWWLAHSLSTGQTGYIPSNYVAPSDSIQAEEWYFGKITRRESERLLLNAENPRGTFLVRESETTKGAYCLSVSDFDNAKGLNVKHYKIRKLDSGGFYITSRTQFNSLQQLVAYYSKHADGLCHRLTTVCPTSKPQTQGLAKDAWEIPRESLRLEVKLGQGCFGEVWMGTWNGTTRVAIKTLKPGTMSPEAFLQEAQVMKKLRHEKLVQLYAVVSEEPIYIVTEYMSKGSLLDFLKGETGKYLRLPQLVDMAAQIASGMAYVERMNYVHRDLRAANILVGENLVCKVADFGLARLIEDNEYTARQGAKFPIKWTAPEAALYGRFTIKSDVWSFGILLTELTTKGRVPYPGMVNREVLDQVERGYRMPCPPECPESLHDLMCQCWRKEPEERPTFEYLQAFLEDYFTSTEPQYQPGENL
How it was run: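 Compounds were tested for blocking tyrosine phosphorylation of a biotinylated peptide substrate by recombinant human Src. Phosphorylated product was quantified by time-resolved fluorometry using europium cryptate and XL665 conjugates, and IC50 was calculated against the compound-free control.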

human Yes1 enzyme = target: T2, human Yes1 enzyme (Homo sapiens, UniProt P07947); assay: Yes1 enzyme inhibitory activity (time-resolved fluorometry, biotinylated peptide phosphorylation); details: biotinylated peptide phosphorylation, read-out: YES_IC50
T2 construct: made in house
T2 sequence (P07947 whole entry): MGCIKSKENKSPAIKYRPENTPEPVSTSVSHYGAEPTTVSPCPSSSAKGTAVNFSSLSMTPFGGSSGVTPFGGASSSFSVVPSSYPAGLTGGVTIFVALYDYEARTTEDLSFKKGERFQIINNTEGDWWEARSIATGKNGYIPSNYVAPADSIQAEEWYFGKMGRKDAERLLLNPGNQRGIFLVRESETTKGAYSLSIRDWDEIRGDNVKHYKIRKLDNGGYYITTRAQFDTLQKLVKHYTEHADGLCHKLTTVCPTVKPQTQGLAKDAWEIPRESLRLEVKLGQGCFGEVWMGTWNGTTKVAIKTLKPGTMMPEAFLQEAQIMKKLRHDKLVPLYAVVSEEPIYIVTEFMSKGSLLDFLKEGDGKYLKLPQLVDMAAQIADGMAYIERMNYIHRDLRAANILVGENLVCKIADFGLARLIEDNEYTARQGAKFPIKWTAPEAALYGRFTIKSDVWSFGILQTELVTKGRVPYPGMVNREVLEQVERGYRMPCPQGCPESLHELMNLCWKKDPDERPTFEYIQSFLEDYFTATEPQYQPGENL
How it was run: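 Inhibition was expressed against a compound-free control to give IC50, using TR-FRET read-out (Eu-cryptate anti-pTyr antibody, streptavidin-XL665).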

human Lck enzyme = target: T3, human Lck enzyme (Homo sapiens, UniProt P06239); assay: Lck enzyme inhibitory activity (time-resolved fluorometry, biotinylated peptide phosphorylation); details: biotinylated peptide phosphorylation, read-out: LCK_IC50
T3 construct: purchased Carna Biosciences, Inc. 08-170
T3 sequence (P06239 whole entry): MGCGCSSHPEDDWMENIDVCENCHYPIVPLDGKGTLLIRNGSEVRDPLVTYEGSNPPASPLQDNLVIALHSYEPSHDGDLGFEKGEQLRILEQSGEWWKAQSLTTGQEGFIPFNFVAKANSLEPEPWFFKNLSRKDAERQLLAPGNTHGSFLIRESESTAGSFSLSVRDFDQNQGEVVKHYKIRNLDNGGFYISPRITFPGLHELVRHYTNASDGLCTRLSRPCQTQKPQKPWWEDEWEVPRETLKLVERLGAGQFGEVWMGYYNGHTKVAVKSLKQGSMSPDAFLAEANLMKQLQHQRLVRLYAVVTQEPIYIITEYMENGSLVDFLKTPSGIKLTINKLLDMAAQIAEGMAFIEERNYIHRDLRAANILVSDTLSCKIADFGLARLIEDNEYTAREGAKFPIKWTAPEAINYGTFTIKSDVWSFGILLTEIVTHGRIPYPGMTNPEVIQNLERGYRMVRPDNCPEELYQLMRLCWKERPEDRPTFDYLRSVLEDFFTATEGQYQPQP
How it was run: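 Readout pairs a europium cryptate-labelled anti-phosphotyrosine antibody with XL665-streptavidin, measured by time-resolved fluorescence. IC50 derived from percent inhibition against untreated controls.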

SMILES | pIC50 (human Src enzyme) | pIC50 (human Yes1 enzyme) | pIC50 (human Lck enzyme)
Cc1cc(Oc2ccccc2)cc(F)c1-n1ncc(C(=O)c2cc3cc(F)c(NS(C)(=O)=O)cc3[nH]2)c1N [Example 4-7-013, N-[2-[5-amino-1-(2-fluoro-6-methyl-4-phenoxyphenyl)pyrazole-4-carbonyl]-5-fluoro-1H-indol-6-yl]methanesulfonamide] | 7.24 | 8.52 | 7.59
Cc1cc(Oc2ccccc2Cl)ncc1-n1ncc(C(=O)c2cc3cc(F)c(NS(=O)(=O)C4CC4)cc3[nH]2)c1N [Example 4-7-015, N-[2-[5-amino-1-[6-(2-chlorophenoxy)-4-methylpyridin-3-yl]pyrazole-4-carbonyl]-5-fluoro-1H-indol-6-yl]cyclopropanesulfonamide] | 6.96 | 9.04 | 7.77
Cc1cc(Oc2cccc(Cl)c2)ncc1-n1ncc(C(=O)c2cc3cc(F)c(NS(=O)(=O)C4CC4)cc3[nH]2)c1N [Example 4-7-016, N-[2-[5-amino-1-[6-(3-chlorophenoxy)-4-methylpyridin-3-yl]pyrazole-4-carbonyl]-5-fluoro-1H-indol-6-yl]cyclopropanesulfonamide] | 6.68 | 8.34 | 6.96
Cc1cc(Oc2ccccc2F)ccc1-n1ncc(C(=O)c2cc3cc(F)c(NS(=O)(=O)C4(CC(O)CO)CC4)cc3[nH]2)c1N (stereo not drawn) [Example 4-8-001, N-{2-{5-amino-1-[4-(2-fluorophenoxy)-2-methylphenyl]pyrazole-4-carbonyl}-5-fluoro-1H-indol-6-yl}-1-(2,3-dihydroxypropyl)cyclopropane-1-sulfonamide] | 7.51 | 8.96 | 7.85
Cc1cc(Oc2c(F)cccc2F)ncc1-n1ncc(C(=O)c2cc3cc(F)c(N4CCCS4(=O)=O)cc3[nH]2)c1N [Example 4-9-002, [5-amino-1-[6-(2,6-difluorophenoxy)-4-methylpyridin-3-yl]pyrazol-4-yl]-[6-(1,1-dioxo-1,2-thiazolidin-2-yl)-5-fluoro-1H-indol-2-yl]methanone] | 8.01 | 9.14 | 9.02
Cc1cc(Oc2ccccc2F)ccc1-n1ncc(C(=O)c2cc3cc(F)c(NS(=O)(=O)CC(=O)NC(C)C)cc3[nH]2)c1N [Example 4-10-002, 2-[[2-[5-amino-1-[4-(2-fluorophenoxy)-2-methylphenyl]pyrazole-4-carbonyl]-5-fluoro-1H-indol-6-yl]sulfamoyl]-N-propan-2-ylacetamide] | 7.57 | 9.11 | 7.96
Cc1cc(Oc2ccccc2F)ccc1-n1ncc(C(=O)c2cc3cc(F)c(NS(=O)(=O)CC(=O)N4CCN(C(C)C)CC4)cc3[nH]2)c1N [Example 4-10-003, N-[2-[5-amino-1-[4-(2-fluorophenoxy)-2-methylphenyl]pyrazole-4-carbonyl]-5-fluoro-1H-indol-6-yl]-2-oxo-2-(4-propan-2-ylpiperazin-1-yl)ethanesulfonamide 2,2,2-trifluoroacetate] | 7.59 | 9.12 | 8.31
Cc1cc(Oc2ccccc2F)ccc1-n1ncc(C(=O)c2cc3cc(F)c(NS(=O)(=O)CC(=O)N4CCOCC4)cc3[nH]2)c1N [Example 4-10-004, N-[2-[5-amino-1-[4-(2-fluorophenoxy)-2-methylphenyl]pyrazole-4-carbonyl]-5-fluoro-1H-indol-6-yl]-2-morpholin-4-yl-2-oxoethanesulfonamide] | 7.92 | 9.28 | 8.08
Cc1cc(Oc2ccccc2F)ncc1-n1ncc(C(=O)c2cc3cc(F)c(NS(=O)(=O)CC(=O)N4CCCC4)cc3[nH]2)c1N [Example 4-10-005, N-[2-[5-amino-1-[6-(2-fluorophenoxy)-4-methylpyridin-3-yl]pyrazole-4-carbonyl]-5-fluoro-1H-indol-6-yl]-2-oxo-2-pyrrolidin-1-ylethanesulfonamide] | 7.24 | 8.55 | 7.80
Cc1cc(Oc2ccccc2F)ncc1-n1ncc(C(=O)c2cc3cc(F)c(NS(=O)(=O)CC(=O)N4CCOCC4)cc3[nH]2)c1N [Example 4-10-006, N-[2-[5-amino-1-[6-(2-fluorophenoxy)-4-methylpyridin-3-yl]pyrazole-4-carbonyl]-5-fluoro-1H-indol-6-yl]-2-morpholin-4-yl-2-oxoethanesulfonamide] | 7.43 | 9.00 | 7.72
Cc1cc2cc(C(=O)c3cnn(-c4ccc(Oc5ccccc5F)cc4C)c3N)[nH]c2cc1NS(=O)(=O)CC(=O)N1CCOCC1 [Example 4-10-007, N-{2-{5-amino-1-[4-(2-fluorophenoxy)-2-methylphenyl]pyrazole-4-carbonyl}-5-methyl-1H-indol-6-yl}-2-morpholin-4-yl-2-oxoethanesulfonamide] | 7.89 | 9.32 | 8.07
Cc1cc2cc(C(=O)c3cnn(-c4c(C)cc(Oc5ccccc5F)cc4F)c3N)[nH]c2cc1NS(=O)(=O)CC(=O)N1CCOCC1 [Example 4-10-009, N-[2-[5-amino-1-[2-fluoro-4-(2-fluorophenoxy)-6-methylphenyl]pyrazole-4-carbonyl]-5-methyl-1H-indol-6-yl]-2-morpholin-4-yl-2-oxoethanesulfonamide] | 7.48 | 8.57 | 7.72
COc1cc2cc(C(=O)c3cnn(-c4ccc(Oc5ccccc5F)cc4C)c3N)[nH]c2cc1NS(=O)(=O)CC(=O)N1CCOCC1 [Example 4-10-012, N-[2-[5-amino-1-[4-(2-fluorophenoxy)-2-methylphenyl]pyrazole-4-carbonyl]-5-methoxy-1H-indol-6-yl]-2-morpholin-4-yl-2-oxoethanesulfonamide] | 8.01 | 9.52 | 8.29
COc1cc2cc(C(=O)c3cnn(-c4c(C)cc(Oc5ccccc5F)cc4F)c3N)[nH]c2cc1NS(=O)(=O)CC(=O)N1CCOCC1 [Example 4-10-013, N-[2-[5-amino-1-[2-fluoro-4-(2-fluorophenoxy)-6-methylphenyl]pyrazole-4-carbonyl]-5-methoxy-1H-indol-6-yl]-2-morpholin-4-yl-2-oxoethanesulfonamide] | 7.54 | 8.92 | 7.96
COc1cc2cc(C(=O)c3cnn(-c4cnc(Oc5ccccc5F)cc4C)c3N)[nH]c2cc1NS(=O)(=O)CC(=O)N1CCCC1 [Example 4-10-014, N-[2-[5-amino-1-[6-(2-fluorophenoxy)-4-methylpyridin-3-yl]pyrazole-4-carbonyl]-5-methoxy-1H-indol-6-yl]-2-oxo-2-pyrrolidin-1-ylethanesulfonamide] | 7.54 | 9.27 | 8.00

The remaining molecules from weak to strong by pIC50 (human Src enzyme), led by results:

pIC50 (human Src enzyme) | pIC50 (human Yes1 enzyme) | pIC50 (human Lck enzyme) | SMILES
6.89 | 8.31 | 7.14 | Cc1cc(Oc2ccccc2)cc(F)c1-n1ncc(C(=O)c2cc3cc(F)c(NS(=O)(=O)C4CC4)cc3[nH]2)c1N [Example 4-7-014, N-[2-[5-amino-1-(2-fluoro-6-methyl-4-phenoxyphenyl)pyrazole-4-carbonyl]-5-fluoro-1H-indol-6-yl]cyclopropanesulfonamide]
7.07 | 8.68 | 7.74 | CCN(CC)C(=O)CS(=O)(=O)Nc1cc2[nH]c(C(=O)c3cnn(-c4cnc(Oc5ccccc5F)cc4C)c3N)cc2cc1F [Example 4-10-001, 2-{{2-{5-amino-1-[6-(2-fluorophenoxy)-4-methylpyridin-3-yl]pyrazole-4-carbonyl}-5-fluoro-1H-indol-6-yl}sulfamoyl}-N,N-diethylacetamide]
7.24 | 8.96 | 8.14 | COc1cc2cc(C(=O)c3cnn(-c4cnc(Oc5ccccc5F)cc4C)c3N)[nH]c2cc1NS(=O)(=O)CC(=O)NC(C)C [Example 4-10-015, 2-[[2-[5-amino-1-[6-(2-fluorophenoxy)-4-methylpyridin-3-yl]pyrazole-4-carbonyl]-5-methoxy-1H-indol-6-yl]sulfamoyl]-N-propan-2-ylacetamide]
7.27 | 8.70 | 8.02 | Cc1cc2cc(C(=O)c3cnn(-c4ccc(Oc5ccccc5F)cc4C)c3N)[nH]c2cc1NS(=O)(=O)CC(=O)NC(C)C [Example 4-10-008, 2-[[2-[5-amino-1-[4-(2-fluorophenoxy)-2-methylphenyl]pyrazole-4-carbonyl]-5-methyl-1H-indol-6-yl]sulfamoyl]-N-propan-2-ylacetamide]
7.59 | 8.89 | 8.15 | Cc1cc2cc(C(=O)c3cnn(-c4cnc(Oc5c(F)cccc5F)cc4C)c3N)[nH]c2cc1NS(=O)(=O)CC(=O)N1CCOCC1 [Example 4-10-010, N-[2-[5-amino-1-[6-(2,6-difluorophenoxy)-4-methylpyridin-3-yl]pyrazole-4-carbonyl]-5-methyl-1H-indol-6-yl]-2-morpholin-4-yl-2-oxoethanesulfonamide]
7.60 | 9.19 | 8.42 | COc1cc2cc(C(=O)c3cnn(-c4ccc(Oc5ccccc5F)cc4C)c3N)[nH]c2cc1NS(=O)(=O)CC(=O)NC(C)C [Example 4-10-011, 2-[[2-[5-amino-1-[4-(2-fluorophenoxy)-2-methylphenyl]pyrazole-4-carbonyl]-5-methoxy-1H-indol-6-yl]sulfamoyl]-N-propan-2-ylacetamide]
7.89 | 9.34 | 8.60 | Cc1cc(Oc2ccccc2F)ncc1-n1ncc(C(=O)c2cc3cc(F)c(N4CCCS4(=O)=O)cc3[nH]2)c1N [Example 4-9-001, {5-amino-1-[6-(2-fluorophenoxy)-4-methylpyridin-3-yl]pyrazol-4-yl}-[6-(1,1-dioxo-1,2-thiazolidin-2-yl)-5-fluoro-1H-indol-2-yl]methanone]
